Results on 34 compounds are retold here after patent US10888567B2, “Inhibitors of tryptophan dioxygenases (IDO1 and TDO) and their use in therapy” (AUCKLAND UNISERVICES LIMITED, priority 2014, dated 2021).

As usually defined, the pIC50 is the negative decadic logarithm of the IC50, by convention in mol/L.

Test [1] addresses Recombinant human IDO1 (rhIDO1) (Homo sapiens (Human), UniProt P14902). Briefly: Enzymatic assay for IDO1 activity. The following applies: rhIDO1 9 nM, 80 μM TRP, 37° C. 30 min. In kind it is biochemical. Here is the method:
Recombinant human IDO1 (rhIDO1) was expressed and purified from cultures of EC538 strain of E. coli transformed with pREP4 and pQE9-IDO plasmid. Reaction mixes were set up in 384-well microplates containing 50 mM phosphate buffer, 10 mM ascorbic, 10 μM methylene blue, 100 μg/mL catalase, 80 μM TRP, 0.01% Tween 20 (v/v) mixed with rhIDO1 (15 μL) at a final concentration of 9 nM in a total volume of 30 μL assay medium. The plates were incubated at 37° C. for 30 min, and the enzymatic reaction was terminated by adding piperidine (200 mM) and heated at 65° C. for 20 min. Fluorescence intensity was read at λex 400 nm and λem 500 nm. Test compounds were dissolved in 100% DMSO and pre-diluted in assay medium prior to adding rhIDO1. IDO1 inhibition (%) was calculated as
[formula] All experiments were carried out in triplicates, and statistical Analyses were conducted in Prism v5 (Graphpad Software, Inc., La Jolla, Calif., USA). Cell-Based Assay for IDO1 Inhibition

Test [2] concerns the target human IDO1 (LLTC-hIDO1 cells) (Homo sapiens, UniProt P14902). Briefly: Cell-based assay for IDO1 inhibition (kynurenine in supernatant). The following applies: IDO1-transfected Lewis Lung carcinoma cells, 24 h; read-out: Cellular IC50. Here is the method:
Culture supernatant from each well was then transferred into a fresh, flat-bottomed 96-well plate, mixed with trichloroacetic acid (10% final concentration) and incubated for 20 min at 60° C. […] The absorbance of each well was read at 480 nm, and the concentration that inhibited 50% cellular enzyme activity was calculated.

Test [3] has as its system Lewis Lung carcinoma cells transfected to express IDO1 (LLTC-hIDO1). Briefly: MTT cell viability in the cellular IDO1 assay. In kind it is cell-based. The following applies: same experiment as cellular IDO1 assay. As to the method:
The viability of the cells in each well in the same experiment was determined using the 3-(4,5-dimethylthiazolyl-2-yl)-2,5-diphenyltetrazolium bromide (MTT) colourimetric assay. After the removal of the supernatant for determination of IDO1 inhibition, the cells were incubated with MTT (500 μg/mL) until crystal formation was observed. […] DMSO (100 μL/well) was added to dissolve the crystals and then the absorbance in each well was measured at 570 nm. Cell viability in each well was expressed as a percentage of untreated controls. Triplicate cultures were used for all experiments unless stated otherwise.

Each structure is given as a SMILES string. pIC50: −log10 of the molar value.

Recombinant human IDO1 (rhIDO1), sequence (P14902 whole entry): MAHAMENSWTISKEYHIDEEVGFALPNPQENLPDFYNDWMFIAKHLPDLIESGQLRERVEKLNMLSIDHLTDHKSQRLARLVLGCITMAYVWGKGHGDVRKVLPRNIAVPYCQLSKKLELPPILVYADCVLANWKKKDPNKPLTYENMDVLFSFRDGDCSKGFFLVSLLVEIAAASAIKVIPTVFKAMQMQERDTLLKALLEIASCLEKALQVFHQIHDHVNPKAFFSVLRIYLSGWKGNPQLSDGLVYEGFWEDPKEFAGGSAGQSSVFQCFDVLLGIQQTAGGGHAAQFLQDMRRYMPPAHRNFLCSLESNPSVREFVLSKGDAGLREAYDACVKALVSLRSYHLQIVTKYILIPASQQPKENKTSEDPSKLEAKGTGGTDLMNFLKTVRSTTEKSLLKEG

`Nc1noc2ncncc12` [Compound 12, Isoxazolo[5,4-d]pyrimidin-3-amine]: the pIC50 is less than 4.00 in test [1], 5.00 to 6.00 in test [2] and less than 4.00 in test [3].
For `Nc1noc2ncccc12` [Compound 2, Isoxazolo[5,4-b]pyridin-3-amine], the pIC50 in test [1] is less than 4.00; in test [2], 4.00 to 5.00; in test [3], less than 4.00.
For the compound `CCOC(=O)c1cc2c(N)noc2nc1C(F)F` [Compound 54, Ethyl 3-amino-6-(difluoromethyl)isoxazolo[5,4-b]pyridine-5-carboxylate], the values for the pIC50 in test [1], in test [2] and in test [3] were less than 4.00, 4.00 to 5.00 and less than 4.00, respectively.
In the case of `Cc1cc(Cl)nc2onc(N)c12` [Compound 42, 6-Chloro-4-methylisoxazolo[5,4-b]pyridin-3-amine], the pIC50 in test [1] is greater than 6.00; in test [2], greater than 6.00; in test [3], less than 4.00.
Take `COc1cccc(Nc2ccc3c(N)noc3n2)c1` [Compound 95, N^6-(3-Methoxyphenyl)isoxazolo[5,4-b]pyridine-3,6-diamine]: the figures for the pIC50 in test [1], in test [2] and in test [3] were less than 4.00, 5.00 to 6.00 and less than 4.00, respectively.
Regarding `COc1ccc(-c2ccc3c(N)noc3n2)cc1` [Compound 70, 6-(4-Methoxyphenyl)isoxazolo[5,4-b]pyridin-3-amine], the pIC50 in test [1], in test [2] and in test [3] was less than 4.00 throughout.
Regarding `CN(C)c1nc2onc(N)c2cc1F` [Compound 57, 5-Fluoro-N6,N6-dimethylisoxazolo[5,4-b]pyridine-3,6-diamine], the pIC50 in test [1], in test [2] and in test [3] was less than 4.00 each time.
Take `CN(C)CCCOc1ccc2c(N)noc2n1` [Compound 76, 6-(3-(Dimethylamino)propoxy)isoxazolo[5,4-b]pyridin-3-amine]: the pIC50 in test [1], in test [2] and in test [3] was less than 4.00 throughout.
Consider `Cn1nccc1-c1ccc2c(N)noc2n1` [Compound 75, 6-(1-Methyl-1H-pyrazol-5-yl)isoxazolo[5,4-b]pyridin-3-amine], for which the pIC50 in test [1], in test [2] and in test [3] was less than 4.00 each time.
Consider `Nc1noc2nc(NC3CC3)c(F)cc12` [Compound 56, N6-Cyclopropyl-5-fluoroisoxazolo[5,4-b]pyridine-3,6-diamine], for which the pIC50 in test [1], in test [2] and in test [3] was less than 4.00 throughout.
Regarding `Nc1noc2nc(Oc3ccccc3Cl)ccc12` [Compound 84, 6-(2-Chlorophenoxy)isoxazolo[5,4-b]pyridin-3-amine], the pIC50 in test [1] is 4.00 to 5.00; in test [2], 4.00 to 5.00; in test [3], less than 4.00.
`Cc1nc2onc(N)c2c(C)c1OC(F)F` [Compound 52, 5-(Difluoromethoxy)-4,6-dimethylisoxazolo[5,4-b]pyridin-3-amine]: the results for the pIC50 in test [1], in test [2] and in test [3] were less than 4.00, 4.00 to 5.00 and less than 4.00, respectively.
As for `Nc1noc2nc(Cl)cc(C(F)(F)F)c12` [Compound 68, 6-Chloro-4-(trifluoromethyl)isoxazolo[5,4-b]pyridin-3-amine], the pIC50 in test [1] is less than 4.00; in test [2], 4.00 to 5.00; in test [3], less than 4.00.
`Nc1noc2nc(-c3ccccc3)ccc12` [Compound 15, 6-Phenylisoxazolo[5,4-b]pyridin-3-amine]: the pIC50 is less than 4.00 in test [1], 5.00 to 6.00 in test [2] and less than 4.00 in test [3].
For `CSc1ncc2c(N)noc2n1` [Compound 63, 6-(Methylthio)isoxazolo[5,4-d]pyrimidin-3-amine], the negative logarithm of the IC50 (pIC50) in test [1] is less than 4.00; in test [2], 4.00 to 5.00; in test [3], less than 4.00.
`Nc1noc2nc3c(cc12)CCC3` [Compound 59, 6,7-Dihydro-5H-cyclopenta[b]isoxazolo[4,5-e]pyridin-3-amine]: the pIC50 in test [1], in test [2] and in test [3] was less than 4.00 in each case.
Take `Nc1noc2nc3ccccc3cc12` [Compound 9, Isoxazolo[5,4-b]quinolin-3-amine]: the pIC50 in test [1] was 4.00 to 5.00; in test [2], 5.00 to 6.00; in test [3], less than 4.00.
For `CNc1noc2nc(C)c(Cl)c(C)c12` [Compound 20, 5-Chloro-N^3,4,6-trimethylisoxazolo[5,4-b]pyridin-3-amine] the same measures were less than 4.00, 4.00 to 5.00 and less than 4.00.
Taken in the same sequence, the figures for `Nc1noc2nc(C(=O)O)ccc12` [Compound 81, 3-Aminoisoxazolo[5,4-b]pyridine-6-carboxylic acid] were less than 4.00, less than 4.00 and less than 4.00.
For `Nc1noc2nc(-c3ccco3)ccc12` [Compound 58, 6-(Furan-2-yl)isoxazolo[5,4-b]pyridin-3-amine] the same measures were less than 4.00, 5.00 to 6.00 and less than 4.00.
For the compound `Cc1nc2onc(N)c2c(C)c1Br` [Compound 1, 5-Bromo-4,6-dimethylisoxazolo[5,4-b]pyridin-3-amine], the pIC50 in test [1] is 5.00 to 6.00; in test [2], greater than 6.00; in test [3] it was less than 4.00.
Taken in the same sequence, the figures for `Nc1noc2nc(Oc3ccccc3OC(F)(F)F)ccc12` [Compound 87, 6-(2-(Trifluoromethoxy)phenoxy)isoxazolo[5,4-b]pyridin-3-amine] were less than 4.00, 4.00 to 5.00 and less than 4.00.
For `Nc1noc2nc(Cl)c(Cl)cc12` [Compound 67, 5,6-Dichloroisoxazolo[5,4-b]pyridin-3-amine] the same measures were greater than 6.00, 5.00 to 6.00 and less than 4.00.
`Nc1noc2nc(Oc3cccc(OC(F)(F)F)c3)ccc12` [Compound 88, 6-(3-(Trifluoromethoxy)phenoxy)isoxazolo[5,4-b]pyridin-3-amine]: the pIC50 in test [1] is less than 4.00; in test [2], 4.00 to 5.00; in test [3], less than 4.00.
As for `COC(=O)c1ccc2c(N)noc2n1` [Compound 82, Methyl 3-aminoisoxazolo[5,4-b]pyridine-6-carboxylate], the values for the pIC50 in test [1], in test [2] and in test [3] were less than 4.00, 4.00 to 5.00 and less than 4.00, respectively.
`Nc1noc2ncc(Cl)cc12` [Compound 8, 5-Chloroisoxazolo[5,4-b]pyridin-3-amine]: the pIC50 in test [1] was 4.00 to 5.00; in test [2] it was greater than 6.00; in test [3], less than 4.00.
For the compound `CSc1ccc2c(N)noc2n1` [Compound 79, 6-(Methylthio)isoxazolo[5,4-b]pyridin-3-amine], the pIC50 in test [1] is 4.00 to 5.00; in test [2], 5.00 to 6.00; in test [3], less than 4.00.
Regarding `COCC#Cc1cnc2onc(N)c2c1` [Compound 69, 5-(3-Methoxyprop-1-yn-1-yl)isoxazolo[5,4-b]pyridin-3-amine], the pIC50 in test [1] was less than 4.00; in test [2], 4.00 to 5.00; in test [3], less than 4.00.
Consider `CS(=O)(=O)c1ccc2c(N)noc2n1` [Compound 80, 6-(methylsulfonyl)isoxazolo[5,4-b]pyridin-3-amine], for which the pIC50 was less than 4.00 in test [1], 4.00 to 5.00 in test [2] and less than 4.00 in test [3].
In the case of `Cc1cc2c(N)noc2nc1C` [Compound 45, 5,6-Dimethylisoxazolo[5,4-b]pyridin-3-amine], the pIC50 in test [1] is less than 4.00; in test [2], 4.00 to 5.00; in test [3], less than 4.00.
Consider `CN(C)CCOc1ccc2c(N)noc2n1` [Compound 77, 6-(2-(Dimethylamino)ethoxy)isoxazolo[5,4-b]pyridin-3-amine], for which the pIC50 in test [1], in test [2] and in test [3] was less than 4.00 throughout.
In the case of `Cc1cc(C(F)(F)F)c2c(N)noc2n1` [Compound 46, 6-Methyl-4-(trifluoromethyl)isoxazolo[5,4-b]pyridin-3-amine], the negative-log IC50 (pIC50) in test [1] is less than 4.00; in test [2] it was 4.00 to 5.00; in test [3] it was less than 4.00.
With `Cc1ncc2c(N)noc2n1` [Compound 64, 6-Methylisoxazolo[5,4-d]pyrimidin-3-amine], the pIC50 in test [1] is less than 4.00; in test [2], 4.00 to 5.00; in test [3] it was less than 4.00.
`Nc1noc2nc(Oc3cccc(C(F)(F)F)c3)ccc12` [Compound 93, 6-(3-(Trifluoromethyl)phenoxy)isoxazolo[5,4-b]pyridin-3-amine]: the results for the pIC50 in test [1], in test [2] and in test [3] were less than 4.00, 4.00 to 5.00 and less than 4.00, respectively.
